Test results from paper PMC11077815, “Synthesis and antitumor activity of dolutegravir derivatives bearing 1,2,3-triazole moieties” (BMC Chemistry, 2024).

How the values were obtained:
Type in all cases: cell-based, Human
β-catenin = experiment: Western blot of β-catenin in PC-9 cells; conditions: PC-9, 0, 2, 4, 8 µM, 48 h
Description: (§1) To determine the role of compounds 9e and 9p on regulating the development of cell proliferation, expressions of key proteins which were involved in cell growth progresses such as autophagy, apoptosis, cell cycle and DNA damage were examined. Ubiquitin like molecule light chain 3 (LC3) is a key marker of autophagy. […] Caspase3, which is one of the key proteins in regulating apoptosis, however, was not changed in tumor cells after treated with 9e or 9p. Cell cycle regulation proteins such as CyclinD, CyclinE or β-catenin were also not affected when PC-9 was treated with 9e or 9p. Further, H2AX variant histone (γ-H2AX), which was responsible for DNA damage, was also not affected when PC-9 were treated with 9e or 9p.
(§2) Protein expression levels were measured by western blot. PC-9 cells were cultured in 12-well plates and different concentrations (0, 2, 4, 8µM) of 9e and 9p were added for 48 h. Proteins were extracted from whole cells using radioimmunoprecipitation assay (RIPA). Buffer containing protease/phosphatase inhibitor cocktail (CST). Sodium dodecyl sulfate (10-15%) polyacrylamide gel electrophoresis and nitrocellulose membranes (Millipore) were used to separate and collect proteins. Antibodies used include, LC3 (3868s, CST), Caspase3 (9662, CST), cyclin D (2922s, CST), cyclin E (20808s, CST), γ-H2AX (9718s, CST), and β-actin (4967s, CST).

CyclinE = experiment: Western blot of CyclinE in PC-9 cells; conditions: PC-9, 0, 2, 4, 8 µM, 48 h
Description: as §1, §2

H460 [1] = experiment: Cellular ROS measurement (DCFH-DA), H460; conditions: H460, 5 µM and 10 µM, 24 h, DCFH-DA staining
Experimental: Reactive oxygen species could induce cell death and suppress cell growth and proliferation. To assess the role of compounds 9e and 9p in ROS generation, different cancer cell lines were treated with 9e or 9p for 24 h. DCFDA was used to stain cells and ROS was detected with fluorescent microscope.
PC-9 and H460 cells were cultured in 96-well plates in a density of 5 × 10^3 cells/well. Different concentrations (0, 5 and 10 µM) of 9e or 9p were added to cells respectively for 24 h. After treatment, cells were stimulated with 10 µM DCFH-DA for 30 min at 37 °C, then observed and photographed using a fluorescent microscope.

PC-9 [2] = experiment: CCK8 cell viability assay, PC-9; conditions: for Cell viability (100%): PC9, 20 µM, 48 h, CCK8, control = 100%; for IC50: PC9, 48 h, CCK8, mean ± SE
Experimental: At first, CCK8 assay was carried out to evaluate the anti-proliferative activity of dolutegravir-1,2,3-triazole derivatives against different cancer cell lines. The results of cell viability of three lung cancer cell lines A549, PC-9 and H460 in the presence of compounds 9 and 10 are summarized in Table 2. Cells were treated with different compounds at the concentration of 20 µM for 48 h. […] Human lung cancer cell lines A549, PC-9 and H460 were all obtained from ATCC. Cells were cultured in DMEM or RPMI 1640 medium containing 10% FBS and 1% penicillin/streptomycin at 37 °C with a 5% CO2-humidified atmosphere. CCK8 assay was used to measure cell viability. Cells with a density of 1 × 10^4 cells/well were seeded on the 96-well plates. After adhesion, cells were treated with different diluted compounds or vehicle control DMSO and continue cultured for 48 h. Then, CCK8 reagent was added for one hour incubation at 37 °C with 5% of CO2. Absorbance was measured using a microplate spectrophotometer (Thermo) at 450 nm. The ratio of cell viability of control was taken as 100%. […] Then IC50 of the compounds were investigated using the prism statistical software.

γ-H2AX = experiment: Western blot of γ-H2AX in PC-9 cells; conditions: PC-9, 0, 2, 4, 8 µM, 48 h
Description: as §1, §2

PC-9 [3] = experiment: Cell cycle assay (PI staining, flow cytometry), PC-9; conditions: 48 h
Experimental: (§3) Cancer cell lines PC-9 and H460 were then treated for 48 h with 9e or 9p at different concentrations to investigate the effects of these compounds on regulating the cell cycle. Cell cycle distributions were analyzed using the flow cytometry technique.
(§4) PC-9 and H460 cells were cultured in 6-well plates with a density of 3 × 10^5 cells/well. Cells were treated with different concentrations (0, 4, and 8 µM for PC-9 cells and H460 cells) of 9e or 9p for 48 h respectively. Then the cell cycle was determined by PI staining with the flow cytometer.

H460 [4] = experiment: Cell cycle assay (PI staining, flow cytometry), H460; conditions: H460, 48 h, 4 and 8 µM
Experimental: as §3, §4

PC-9 [5] = experiment: LIVE/DEAD staining, PC-9; conditions: PC-9, 5, 10 or 20 µM, 24 h
Experimental: LIVE/DEAD staining experiments were carried out to evaluate the anti-proliferative activity of dolutegravir derivatives 9e and 9p against PC-9 and H460 cell lines. The tumor cells were treated with 5 µM, 10 µM or 20 µM of 9e and 9p for 24 h. The live and dead cells were photographed and counted.
PC-9 and H460 cells with a density of 5 × 10^3 cells/well were seeded on the 96-well plates. Then different concentrations (0, 5 µM, 10 µM, 20 µM) of 9e or 9p were treated for 24 h. Cells were then stained with the LIVE/DEAD Assay Kit, observed and photographed using the fluorescent microscope.

IC50 (PC-9 [2]) [µM]	Compound	β-catenin expression (β-catenin)	CyclinE expression (CyclinE)	ROS generation (H460 [1])	Cell viability (100%) (PC-9 [2]) [%]	γ-H2AX expression (γ-H2AX)	effect on cell cycle (PC-9 [3]; PC-9, 4 µM and 8 µM)	effect on cell cycle (H460 [4])	number of live cells (PC-9 [5])	ratio of dead/live cells (PC-9 [5])	effect on cell cycle (PC-9 [3]; PC-9, 4 µM)	effect on cell cycle (PC-9 [3]; PC-9, 8 µM)
3.17 ± 0.18	COc1c2n(cc(C(=O)Nc3cccc(-c4cn(-c5cccc(C(F)(F)F)c5)nn4)c3)c1=O)C[C@@H]1OCC[C@@H](C)N1C2=O [Compound 9p]	not affected	not affected	significantly increased	2.11	not affected	induced an S and G2/M cell cycle arrest	significantly decrease the S phase	decreased with the increase of concentration	increased compared with untreated group but not completely in a dose dependent manner		
3.83 ± 0.73	COc1c2n(cc(C(=O)Nc3cccc(-c4cn(-c5cccc([N+](=O)[O-])c5C)nn4)c3)c1=O)C[C@@H]1OCC[C@@H](C)N1C2=O [Compound 9e]	not affected	not affected	significantly increased	24.05	not affected		increased G2/M phase and had little influences on G0/G1 or S phase	decreased significantly in a dose dependent manner	increased significantly with the increase of concentration	moderate effects on cell cycle	decreased G0/G1 phase and increased S and G2/M phase
